{"source": "patent US20240342111A1", "about": "“ISOMER-SPECIFIC NEUROPROTECTIVE EFFECT OF NATURAL RESERVATROL” (priority 2021, published 2024)", "key": {"TyrRS [1]": {"system": "TyrRS", "experiment": "Immunostaining of neuronal TyrRS under neurotoxic agents (NMDA, MPP+)", "format": "cell-based, rat", "conditions": "neurotoxic agent alone (50 μM NMDA, 100 μM MPP+), 4 hours"}, "TyrRS [2]": {"target": "T1, TyrRS (Homo sapiens, UniProt P54577)", "T1 construct": "host or cells: HeLa cells", "T1 sequence (P54577 whole entry)": "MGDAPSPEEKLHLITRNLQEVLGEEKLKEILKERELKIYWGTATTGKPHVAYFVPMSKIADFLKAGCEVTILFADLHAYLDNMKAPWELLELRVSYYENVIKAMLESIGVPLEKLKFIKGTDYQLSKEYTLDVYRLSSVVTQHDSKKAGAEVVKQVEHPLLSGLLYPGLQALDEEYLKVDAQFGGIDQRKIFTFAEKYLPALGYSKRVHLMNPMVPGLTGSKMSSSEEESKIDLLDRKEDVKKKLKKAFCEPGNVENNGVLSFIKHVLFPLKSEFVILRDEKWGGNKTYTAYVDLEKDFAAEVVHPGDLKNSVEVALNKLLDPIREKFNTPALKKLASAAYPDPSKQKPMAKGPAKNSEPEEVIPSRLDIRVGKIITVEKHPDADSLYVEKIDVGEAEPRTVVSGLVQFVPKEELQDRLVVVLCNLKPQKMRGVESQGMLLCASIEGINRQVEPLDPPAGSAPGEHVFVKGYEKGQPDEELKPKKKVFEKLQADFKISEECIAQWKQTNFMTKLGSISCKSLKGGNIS", "conditions": "low dose ≤5 μM, HeLa cells; cited from earlier work"}, "[3]": {"system": "ataxia telangiectasia mutated (ATM) kinase", "conditions": "low dose 5 μM; cited from earlier work"}, "pSer10-H3": {"system": "pSer10-H3", "experiment": "Immunostaining of pSer10-H3 (ADP-ribosylation dependent DNA repair marker)", "format": "cell-based, rat", "conditions": "Aβ 50 nM, 24 hours", "source_text": "Ac-K56-H3 is a marker of genomic stability, see Driscoll, R., Hudson, A. & Jackson, S. P. Yeast Rtt109 promotes genome stability by acetylating histone H3 on lysine 56. Science 315, 649-652, doi:10.1126/science.1135862 (2007), and DNA damage, see Tjeertes, J. V., Miller, K. M. & Jackson, S. P. Screen for DNA-damage-responsive histone modifications identifies H3K9Ac and H3K56Ac in human cells. EMBO J 28, 1878-1889, doi:10.1038/emboj.2009.119 (2009), and inhibition of PARP1 causes the downregulation of RAD51, see Hegan, D. C. et al. Inhibition of poly(ADP-ribose) polymerase down-regulates BRCA1 and RAD51 in a pathway mediated by E2F4 and p130. Proc Natl Acad Sci U S A 107, 2201-2206, doi:10.1073/pnas.0904783107 (2010), and induces neurotoxicity, see Diaz-Hernandez, J. I., Moncada, S., Bolanos, J. P. & Almeida, A. Poly(ADP-ribose) polymerase-1 protects neurons against apoptosis induced by oxidative stress. Cell Death Differ 14, 1211-1221, doi:10.1038/sj.cdd.4402117 (2007) and Midorikawa, R., Takei, Y. & Hirokawa, N. KIF4 motor regulates activity-dependent neuronal survival by suppressing PARP-1 enzymatic activity. Cell 125, 371-383, doi:10.1016/j.cell.2006.02.039 (2006). […] The western blot images of the protein levels of HPF1 was quantified using ImageJ.\nCoverslips were then mounted using DAPI (4′,6-diamidino-2-phenylindole)-supplemented mounting medium, Prolong Gold Antifade (Invitrogen) imaged with Leica DMI6000 epifluorescent microscope at 63×magnification."}, "[4]": {"system": "phenyl-tRNA synthetase beta (PheRSβ)", "experiment": "Immunoblot for PheRSβ after treatment with Aβ42", "format": "cell-based, rat", "conditions": "different doses of Aβ42, 24 hours", "experimental": "(§1) Representative immunostaining images (scale bar, 20 μm) for neuronal TyrRS (spectral images) after treatment with neurotoxic agents result in TyrRS downregulation. […] The protein level of TyrRS was quantified by measuring the average intensity of fluorescence staining with regions defined by MAP2 (neurite marker) staining across n=3 experiments using n≥20 neurons for quantification per treatment condition. […] Rat cortical neurons (DIV 9) were treated with different doses of Aβ42 for 24 hours. All graphical representations depict mean±SEM from n=3 experiments with statistical significance calculated using paired Student's t-test.\n(§2) Cultured neurons (DIV 9-10) were washed once with cold 1×PBS and lysed in cell lysis buffer (20 mM Tris-HCl (pH 7.5), 150 mM NaCl, 1 mM Na2EDTA, 1 mM EGTA, 1% Triton, 2.5 mM sodium pyrophosphate, 1 mM beta-glycerophosphate, 1 mM Na3VO4, 1 μg/ml leupeptin supplemented with protease inhibitor). The lysates were centrifuged at 10,000 RPM for 15 minutes at 4° C. to separate the chromatin-bound and soluble fractions. Lysates were quantified using Bio-Rad Protein Assay, and an equal amount of protein was loaded onto a 4 to 12% gradient gel (NuPAGE-Invitrogen). […] Quantification for the western blots was done using ImageJ (Version 1.53c)."}, "TyrRS [5]": {"system": "TyrRS", "experiment": "Immunoblot for TyrRS after treatment with Aβ42", "format": "cell-based, rat", "conditions": "different doses of Aβ42, 24 hours", "experimental": "as §1, §2"}, "TyrRS [6]": {"target": "T2, TyrRS (Rattus norvegicus, UniProt Q4KM49)", "T2 construct": "Primary cortical neuron cultures were obtained from E18 Sprague Dawley rats' cortices; endogenous in cells; host or cells: rat primary cortical neurons (E18 Sprague Dawley)", "T2 sequence (Q4KM49 1-528)": "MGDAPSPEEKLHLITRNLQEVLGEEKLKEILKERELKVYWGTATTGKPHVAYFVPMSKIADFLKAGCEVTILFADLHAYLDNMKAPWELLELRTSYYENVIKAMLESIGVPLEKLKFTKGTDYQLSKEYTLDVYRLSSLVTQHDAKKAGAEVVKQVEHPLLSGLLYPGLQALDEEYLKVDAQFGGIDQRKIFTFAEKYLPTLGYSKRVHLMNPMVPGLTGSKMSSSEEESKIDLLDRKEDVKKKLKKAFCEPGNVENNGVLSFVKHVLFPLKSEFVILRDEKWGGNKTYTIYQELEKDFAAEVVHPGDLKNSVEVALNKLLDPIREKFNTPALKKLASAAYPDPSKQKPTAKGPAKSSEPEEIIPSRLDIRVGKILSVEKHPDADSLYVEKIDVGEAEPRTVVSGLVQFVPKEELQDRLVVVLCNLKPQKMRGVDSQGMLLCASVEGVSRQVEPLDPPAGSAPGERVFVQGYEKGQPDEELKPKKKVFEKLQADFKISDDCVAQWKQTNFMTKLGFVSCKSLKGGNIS", "experiment": "Immunostaining of neuronal TyrRS, RSV alone or in combination with Aβ", "format": "cell-based", "conditions": "Aβ 50 nM alone, 16 hours"}}}
{"molecule": "C[n+]1ccc(-c2ccccc2)cc1", "note": "[MPP^+, 1-methyl-4-phenylpyridinium]", "values": [{"measurement": "neuronal protein levels of TyrRS", "setting": "TyrRS [1]", "result": "downregulate the neuronal protein levels of TyrRS"}]}
{"molecule": "CN[C@H](CC(=O)O)C(=O)O", "note": "[NMDA, N-Methyl-D-aspartate]", "values": [{"measurement": "neuronal protein levels of TyrRS", "setting": "TyrRS [1]", "result": "downregulate the neuronal protein levels of TyrRS"}]}
{"molecule": "Oc1ccc(C=Cc2cc(O)cc(O)c2)cc1", "note": "[RSV, Resveratrol]", "values": [{"measurement": "protein levels of TyrRS", "setting": "TyrRS [2]", "result": "upregulated the protein levels of TyrRS"}, {"measurement": "ATM kinase activation", "setting": "[3]", "result": "activate"}]}
{"molecule": "human amyloid β protein fragment 1-42 [Aβ]", "values": [{"measurement": "pSer10-H3 levels", "setting": "pSer10-H3", "result": "upregulation"}, {"measurement": "PheRSβ protein level (immunoblot)", "setting": "[4]", "result": "did not downregulate"}, {"measurement": "TyrRS protein level (immunoblot)", "setting": "TyrRS [5]", "result": "downregulates TyrRS in a dose-dependent manner"}, {"measurement": "TyrRS protein levels", "setting": "TyrRS [6]", "result": "downregulation"}]}
